Test results as given in US20140107218A1, “METHODS FOR MAINTAINING EYE HEALTH AND AMELIORATING OPTHALMIC MALADIES IN ANIMALS” (NESTEC SA, priority 2012, published 2014).

System: rabbit lenses
Experiment: Calcium-induced lens opacification in cultured rabbit lenses, transparency evaluation
Type: cell-based
Conditions: 20 mM CaCl2 plus polyamine 100 mM; for Effect on calcium-induced lens opacification (in words): 72 hours; for Percent Light Transmittance After Treatments (Average): 72 hours of treatment, absorbance at 394 nm, triplicate, Control 73.3, Ca alone 47.3
Protocol: Rabbit eyes were obtained from a rabbit renderer and were dissected within twenty-four (24) hours of the animal's death. The lenses were removed aseptically and cultured in M199 media, 20 mM HEPES, 100 units/ml penicillin, […] streptomycin and 0.1% BSA under 5% CO2 at 37° C. in a humidified incubator for twenty-four hours before the start of treatment. Lens opacification was induced with 20 mM CaCl2, according to the method of Hytower and Dering (Hightower Kr, Dering, M (1984) Invest Ophthalmol Vis Sci 251:108-111). Polyamines were added at a concentration of 100 mM. All experiments were done in triplicate.
Transparency Evaluation: When proteins are modified or oxidized they aggregate, and cause protein solutions to become cloudy or translucent because the proteins lose solubility. The turbidity of a protein solution is a measure of protein aggregation. Turbidity of the lenses after treatment was determined by measuring the increase in protein absorbency. Control (no Ca++), Ca++ and Ca++ with polyamines spermidine, spermine, or putrescine were collected and homogenized in lysis buffer [50 mM Tris-HCl, pH 8.0; 150 mM NaCl, 1% Igepal and protease inhibitor cocktail (Sigma)] after seventy-two (72) hours of treatment. Absorbance was measured at 394 nm for each sample using a spectrophotometer. Transparency was calculated as a function of the percent transmittance according to Jain (Jain Ak, Lim G, Langford M, Jain Sk (2002) Free Radic Biol Med 33:1615-1621).

SMILES	Effect on calcium-induced lens opacification (in words)	Percent Light Transmittance After Treatments (Average)
NCCCCN [Putrescine, putrescine]	reduce calcium-induced lens opacification	65.7%
NCCCNCCCCNCCCN [Spermine, spermine]		53%
NCCCCNCCCN [Spermidine, spermidine]	reduce calcium-induced lens opacification	56.8%
